The test system of test [1] is human poly-IgG (h-poly-IgG). Kind of test: Microtiter plate chromatography of resins, human poly-IgG (bound, yield). The format is binding. How it is done:
(§1) Resins were assessed in packed mode by microtiter plate chromatography. For each column, approximately 30 μl of resin were transferred to a 384-well filter plate and sealed with appropriate top frits.
(§2) Columns were equilibrated with 6.7 column volumes (cv) of phosphate buffered saline (0.15 M NaCl, 20 mM sodium phosphate, pH 7.3; PBS) prior to injection. Either 3.3 cv of whole IgGs dissolved at 0.75 mg ml^−1, Fab or Fc fragments dissolved at 0.25 mg ml^−1 (all three in PBS) or host cell proteins (HCP) were injected onto columns. Antibody fragments of Bevacizumab (Fab and Fc) were prepared by cleavage of whole IgG with papain protease (3) according to the protocol of the manufacturer. […] Volumes transferred were spun through columns at 50 g for 1-2 min. During injection of samples, acceleration was reduced to 10 g and centrifugation time increased to 5-10 min. Effluent fractions were collected in 384-well plates and concentrations of protein analyzed by Bradford assay. Protein masses mi, mft and me (see below) were calculated as the product of fraction volume and measured protein concentration.
(§3) The fraction of ‘bound’ protein was calculated as the difference between the total mass of protein injected mi and the mass of protein detected in the flowthrough mft, divided by the total mass of protein injected.
(§4) The ‘yield’ of protein was calculated as the mass of protein eluted me, divided by the mass of protein injected mi.
(§5) the fraction of ‘bound’ protein and the ‘yield’ of protein were calculated for each resin based on data for whole IgG-antibodies. In the case of Bevacizumab fragments and host cell proteins, only the fraction of ‘bound’ protein is given. Selectivity of resins was calculated from data for Bevacizumab Whole IgG and host cell proteins. Due to limited experimental precision, selectivity was truncated beyond values of 10.

Test [2] deals with Bevacizumab. The test is described as follows: Microtiter plate chromatography of resins, Bevacizumab whole IgG (bound, yield, selectivity). The format is binding, humanized. On the procedure:
as §1, §2, §3, §4
(§6) The ‘selectivity’ of resins was calculated as the fraction of bound antibody BAb, divided by the fraction of bound host cell proteins BHCP.
as §5

Test [3] has as its target T1, Bevacizumab (Homo sapiens, UniProt P01857).
T1 construct: fused on or other part: humanised anti-VEGF-A VH domain N-terminal of the gamma-1 constant region (engineered, no UniProt entry)
The description is as above. The format is binding, humanized. To be noted: for Bevacizumab IgG Bound (%): fraction of whole IgG Bevacizumab bound to resin; for Bevacizumab IgG Yield (%): mass of whole IgG Bevacizumab eluted / mass injected. On the procedure:
as §1, §2, §3, §4, §6, §5

The subject of test [4] is Palivizumab. Kind of test: Microtiter plate chromatography of resins, Palivizumab (bound, yield). The format is binding, humanized. How it is done: as §1, §2, §3, §4, §5
Test [5] has as its system host cell proteins (HCP). The test is described as follows: Microtiter plate chromatography of resins, host cell proteins (bound). The format is binding, CHO. Particulars: host cell proteins. On the procedure:
Flowthrough from protein A chromatography (referred to as host cell proteins) was derived from the supernatant of antibody-producing CHO cell culture in serum-free medium.
as §1, §2, §3, §5

Test [6] concerns Tocilizumab. The test is described as follows: Microtiter plate chromatography of resins, Tocilizumab (bound, yield). It counts as binding, humanized. How it is done:
as §1, §2, §3, §4, §5

[7] abbreviates: fraction of bound Bevacizumab whole IgG / fraction of bound HCP, truncated beyond values of 10.

Where two headings read alike, the source gives them in different places.

As for `COc1ccc(NC(=O)c2cncc(-c3cc4ccccc4s3)c2)cc1C(=O)NCCCN` [Ligand L14, 5-[3-(2-Benzothienyl)pyridin-5-yl]carboxamido-2-methoxybenzoic acid N-(3-aminopropyl)amide], in test [1], the “h-poly-IgG Bound (%)” value is 73% and the “h-poly-IgG Yield (%)” value turned out to be 62%. Also, the Selectivity in test [2] was 1.3. In test [3], the “Bevacizumab IgG Bound (%)” value came out at 99% and the “Bevacizumab IgG Yield (%)” value is 89%. Besides, in test [4], the “Palivizumab Bound (%)” value is 66% and the “Palivizumab Yield (%)” value turned out to be 61%. In test [5], the “HCP Bound (%)” value was determined as 74%. Further, in test [6], the “Tocilizumab Bound (%)” value is reported as 82% and the “Tocilizumab Yield (%)” value stood at 74%.
As to `COc1ccc(NC(=O)c2nn(C)c3ccccc23)cc1C(=O)NCCOCCOCC(=O)NCCOCCOCC(=O)NCCCN` [Ligand L61, 8-{8-[2-Methoxy-5-(1-methylindazol-3-ylcarboxamido)phenylcarboxamido]-3,6-dioxaoctanoylamido}-3,6-dioxaoctanoic acid (3-amino-1-propyl)amide], in test [1], the “h-poly-IgG Bound (%)” value is 81% and the “h-poly-IgG Yield (%)” value is 81%. This compound gave a Selectivity in test [2] of 5.1. For the same compound, in test [3], the “Bevacizumab IgG Bound (%)” value is 100% and the “Bevacizumab IgG Yield (%)” value is 92%. Also, in test [4], the “Palivizumab Bound (%)” value came to 67% and the “Palivizumab Yield (%)” value stood at 66%. The “HCP Bound (%)” value in test [5] came to 20%. For the same compound, in test [6], the “Tocilizumab Bound (%)” value stood at 84% and the “Tocilizumab Yield (%)” value amounted to 84%.
On to `COc1ccc(NC(=O)c2cc(-c3cccn3C)n(C)n2)cc1C(=O)NCCCN` [Ligand L16, 2-Methoxy-5-[5-(1-methyl-2-pyrrolyl)-1-methylpyrazol-3-yl]carboxamidobenzoic acid N-(3-aminopropyl)amide], for which, in test [1], the “h-poly-IgG Bound (%)” value is reported as 96% and the “h-poly-IgG Yield (%)” value is on record as 83%. Besides, the Selectivity in test [2] is 2.0. Besides, in test [3], the “Bevacizumab IgG Bound (%)” value is 100% and the “Bevacizumab IgG Yield (%)” value was 93%. Moreover, in test [4], the “Palivizumab Bound (%)” value was determined as 100% and the “Palivizumab Yield (%)” value came to 90%. The “HCP Bound (%)” value in test [5] was 51%. Moreover, in test [6], the “Tocilizumab Bound (%)” value was 100% and the “Tocilizumab Yield (%)” value was determined as 96%.
Consider `Cc1ccc(C(=O)NCCCN)cc1NC(=O)c1cc(-c2cccs2)n(C)n1` [Ligand L10, 4-Methyl-3-[1-methyl-5-(2-thienyl)pyrazol-3-yl]carboxamidobenzoic acid N-(3-aminopropyl)amide], for which, in test [1], the “h-poly-IgG Bound (%)” value is reported as 72% and the “h-poly-IgG Yield (%)” value came to 60%. This compound came in with a Selectivity in test [2] of 1.5. Besides, in test [3], the “Bevacizumab IgG Bound (%)” value amounted to 100% and the “Bevacizumab IgG Yield (%)” value came to 91%. In test [4], the “Palivizumab Bound (%)” value amounted to 59% and the “Palivizumab Yield (%)” value was determined as 62%. In addition, the “HCP Bound (%)” value in test [5] came out at 68%. Further, in test [6], the “Tocilizumab Bound (%)” value is listed as 86% and the “Tocilizumab Yield (%)” value is given as 73%.
On to `Cn1nc(C(=O)Nc2ccc(O)c(C(=O)NCCCN)c2)cc1-c1ccco1` [Ligand L30, 5-[5-(2-Furyl)-1-methylpyrazol-3-yl]carboxamido-2-hydroxybenzoic acid N-(3-aminopropyl)amide], for which, in test [1], the “h-poly-IgG Bound (%)” value amounted to 74% and the “h-poly-IgG Yield (%)” value is 53%. This compound also came in with a Selectivity in test [2] of 2.4. In addition, in test [3], the “Bevacizumab IgG Bound (%)” value stood at 100% and the “Bevacizumab IgG Yield (%)” value is on record as 93%. In test [4], the “Palivizumab Bound (%)” value is on record as 68% and the “Palivizumab Yield (%)” value amounted to 66%. For the same compound, the “HCP Bound (%)” value in test [5] is 42%. Moreover, in test [6], the “Tocilizumab Bound (%)” value was 83% and the “Tocilizumab Yield (%)” value came out at 79%.
Turning to `COc1ccc(NC(=O)c2cc(-c3cccc(Cl)c3)n(C)n2)cc1C(=O)NCCCN` [Ligand L7, 5-[5-(3-Chlorophenyl)-1-methylpyrazol-3-yl]carboxamido-2-methoxybenzoic acid N-(3-aminopropyl)amide], in test [1], the “h-poly-IgG Bound (%)” value worked out at 100% and the “h-poly-IgG Yield (%)” value is 91%. For the same compound, the Selectivity in test [2] is 1.4. In test [3], the “Bevacizumab IgG Bound (%)” value is 100% and the “Bevacizumab IgG Yield (%)” value worked out at 110%. Also, in test [4], the “Palivizumab Bound (%)” value came to 100% and the “Palivizumab Yield (%)” value is reported as 99%. The “HCP Bound (%)” value in test [5] is 70%. In test [6], the “Tocilizumab Bound (%)” value is 92% and the “Tocilizumab Yield (%)” value was found to be 109%.
`COc1ccc(NC(=O)c2cn3ncccc3n2)cc1C(=O)NCCCN` [Ligand L48, 5-(Imidazo[1,2-b]pyridazin-2-ylcarboxamido)-2-methoxybenzoic acid (3-amino-1-propyl)amide]: in test [1], the “h-poly-IgG Bound (%)” value turned out to be 84% and the “h-poly-IgG Yield (%)” value is 84%. Besides, the Selectivity in test [2] (setting [7]) was determined as 10.0. In test [3], the “Bevacizumab IgG Bound (%)” value was found to be 100% and the “Bevacizumab IgG Yield (%)” value stood at 97%. In test [4], the “Palivizumab Bound (%)” value stood at 58% and the “Palivizumab Yield (%)” value stood at 54%. Further, the “HCP Bound (%)” value in test [5] is reported as 8%. In test [6], the “Tocilizumab Bound (%)” value was determined as 87% and the “Tocilizumab Yield (%)” value is given as 87%.
On to `COc1ccc(NC(=O)c2cc(-c3ccco3)n(C)n2)cc1C(=O)N(C)CCCN` [Ligand L28, 5-[5-(2-Furyl)-1-methylpyrazol-3-yl]carboxamido-2-methoxybenzoic acid N-(3-aminopropyl)-N-methylamide], for which, in test [1], the “h-poly-IgG Bound (%)” value turned out to be 58% and the “h-poly-IgG Yield (%)” value came out at 44%. In test [2], this compound gave a Selectivity of 2.9. Also, in test [3], the “Bevacizumab IgG Bound (%)” value was 100% and the “Bevacizumab IgG Yield (%)” value was determined as 81%. Moreover, in test [4], the “Palivizumab Bound (%)” value worked out at 55% and the “Palivizumab Yield (%)” value was determined as 50%. Moreover, in test [5], the “HCP Bound (%)” value was 35%. In addition, in test [6], the “Tocilizumab Bound (%)” value is listed as 63% and the “Tocilizumab Yield (%)” value came out at 61%.
Turning to `COc1ccc(NC(=O)c2cc(C(F)(F)F)n(C)n2)cc1C(=O)NCCCN` [Ligand L34, 2-Methoxy-5-[1-methyl-5-(trifluoromethyl)pyrazol-3-yl]carboxamidobenzoic acid N-(3-aminopropyl)amide], in test [1], the “h-poly-IgG Bound (%)” value is reported as 78% and the “h-poly-IgG Yield (%)” value is 61%. Also, in test [2], the Selectivity is reported as 2.6. For the same compound, in test [3], the “Bevacizumab IgG Bound (%)” value came to 100% and the “Bevacizumab IgG Yield (%)” value came to 89%. In test [4], the “Palivizumab Bound (%)” value stood at 73% and the “Palivizumab Yield (%)” value is 72%. In test [5], the “HCP Bound (%)” value is 39%. For the same compound, in test [6], the “Tocilizumab Bound (%)” value is listed as 85% and the “Tocilizumab Yield (%)” value was found to be 80%.
On to `COc1ccc(NC(=O)c2nc3cccnc3[nH]2)cc1C(=O)NCCCN` [Ligand L41, 5-(3H-Imidazo[4,5-b]pyridin-2-ylcarboxamido)-2-methoxybenzoic acid (3-amino-1-propyl)amide], for which, in test [1], the “h-poly-IgG Bound (%)” value is recorded as 85% and the “h-poly-IgG Yield (%)” value is 85%. In test [2] (setting [7]), the Selectivity stood at 10.0. In test [3], the “Bevacizumab IgG Bound (%)” value is 100% and the “Bevacizumab IgG Yield (%)” value turned out to be 100%. In test [4], the “Palivizumab Bound (%)” value was 74% and the “Palivizumab Yield (%)” value is listed as 71%. In test [5], the “HCP Bound (%)” value was 9%. Moreover, in test [6], the “Tocilizumab Bound (%)” value was found to be 91% and the “Tocilizumab Yield (%)” value amounted to 91%.
As to `COc1ccc(NC(=O)c2cc(-c3ccco3)on2)cc1C(=O)NCCCN` [Ligand L45, 5-[5-(2-Furyl)isoxazol-3-ylcarboxamido]-2-methoxybenzoic acid (3-amino-1-propyl)amide], in test [1], the “h-poly-IgG Bound (%)” value worked out at 100% and the “h-poly-IgG Yield (%)” value came to 100%. Also, the Selectivity in test [2] amounted to 2.3. Also, in test [3], the “Bevacizumab IgG Bound (%)” value is 100% and the “Bevacizumab IgG Yield (%)” value came to 82%. Besides, in test [4], the “Palivizumab Bound (%)” value is recorded as 100% and the “Palivizumab Yield (%)” value amounted to 100%. The “HCP Bound (%)” value in test [5] is 44%. Moreover, in test [6], the “Tocilizumab Bound (%)” value was 100% and the “Tocilizumab Yield (%)” value was determined as 100%.

These data come from patent US20130131321A1, “LIGANDS FOR ANTIBODY AND Fc-FUSION PROTEIN PURIFICATION BY AFFINITY CHROMATOGRAPHY” (GRAFFINITY PHARMACEUTICALS GMBH, priority 2010, published 2013).
